# Measurements reported in patent US20250034264A1, “REGULATING T CELL IMMUNE RESPONSE THROUGH IGF-I RECEPTOR (IGF-1R)” (The Regents of the University of Michigan, priority 2021, published 2025).
# Legend:
# Type in all cases: cell-based, human
# CD34+ fibrocytes = assay: MHC II, CD80, CD86, PD-L1 expression in cultured fibrocytes (RT-qPCR, flow cytometry)
# Text: Fibrocyte and T cell isolation and cultivation. Peripheral blood mononuclear cells (PBMCs) were obtained from the venous circulation of clinic patients with GD, TAO or from healthy donors after obtaining informed consent. PBMCs were also obtained from Red Cross donor plasmapheresis filters. They were isolated by Ficoll-Histopaque (Sigma-Aldrich, St. Louis, MO) density gradient centrifugation. Fibrocytes were cultivated as described (Bucala, R, et al., (1994) Mol Med 1, 71-81, incorporated herein by reference in its entirety) except that culture substrata remained uncoated with fibronectin, as previously described (Douglas, R. S., et al. (2010) The Journal of clinical endocrinology and metabolism 95, 430-438). Isolated PBMCs (1×10^6-1×107) were inoculated in six-well plates covered with DMEM containing 10% FBS and incubated in 10-14 days. Adherent monolayers (<5% of the starting population) were washed with PBS and detached using accutase (Millipore) treatment, or mechanical scraping following accutase treatment. Culture purity was routinely confirmed by FACS analysis to be >90% fibrocytes by confirming the CD31^−CD45^+CD34^+CXCR4^+Col I^+TSFR^high phenotype.
# Invariably, a small population of tightly adherent T cells were found in the fibrocyte cultures, consistent with the previous findings. Culture viability was routinely verified to be >90%. CD4^+ T cells were enriched using the CD4 isolation cocktail (Cat #0.130-096-533, Miltenyi Biotec, San Diego, CA) followed by negative selection using a magnetic column (Cat #0.130-042-401) according to manufacturer's protocol. Fibrocytes and isolated T cells were cultured and remained untreated or were incubated with human IgG isotype control (5 μg/ml) or teprotumumab (50 μg/mL) for 7 to 9 days. Single cell suspensions were stained with anti-human CD4, CD3, CD34, MHC-2, CD80, CD86, and PD-L1 (BD Biosciences) for 30 min, rinsed and fixed with CytoPerm/CytoFix (BD). They were then stained with anti-human INFγ and IL-17A for 20 min, rinsed, and subjected to the flow cytometry analysis. Gated CD34^+CXCR4^+ fibrocytes and CD4^+CD3^+ T cells were analyzed using quadrant settings based on negative isotype staining.
# In vitro studies of CD34^+ fibrocytes and T cells PBMC and GD-OF monolayers were treated in vitro with human IgG isotype control (5 μg/ml), teprotumumab (50 μg/mL), H7 (5 μg/mL), linsitinib (1 μM), bTSH (5 mIU/mL), M22 (1 μg/mL), or IGF-1 (10 nM) for the intervals indicted in the figure legends in a 37° C., 5% CO2, humidified incubator until confluent. Brefeldin A (0.66 μl/ml), (Golgi Stop™, BD Biosciences), phorbol 12-myristate 13-acetate (PMA) (50 ng/ml) and ionomycin (1 μg/mL) were added for 5 h. Cells were rinsed with flow cytometry buffer (1×PBS, 0.5% BSA, 0.1% sodium azide) and stained with the relevant monoclonal antibodies.
# (§1) Real-time PCR Confluent fibrocyte and GD-OF cultures were incubated with bTSH (5 mIU/mL), teprotumumab (50 μg/mL) or linsitinib (1 μM) for the time intervals indicated, washed with PBS and RNA was extracted with the Aurum Total RNA Mini Kit (cat. #732-6820, Bio-Rad, Hercules, CA). Cellular RNA (2 μg) was reverse transcribed using QuantiTect Reverse Transcription kit (cat. #205314, Qiagen (Germantown, MD) and real-time PCR was performed using an Applied Biosystems instrument with QuantiTect SYBR Green PCR kit (cat. no. 204143; Qiagen, Frederick, MD). Primer sequences were as follows.
# fibrocytes [1] = assay: IL-23p19 and IL-12p35 mRNA expression, real-time PCR; details: teprotumumab 50 μg/ml or linsitinib 1 μM, 7-9 d
# Protocol: (§2) FIGS. 10A-10F are graphs showing the divergent effect of teprotumumab on bTSH induced IL-23p19 and IL-12p35 expression on fibrocytes and GD-OF. Rinsed fibrocyte and GD-OF monolayers were incubated with or without 50 μg/ml teprotumumab (FIGS. 10A and 10B) or 1 μM linsitinib (FIGS. 10C and 10D) and human Isotype IgG for 7-9 d, and bTSH (5 mIU/mL) was added for 6 h. Harvested RNA was reverse transcribed and isolated cDNA was subjected to quantitative real-time PCR for IL-23p19 and IL-12p35 mRNA levels. Values were normalized to their respective GAPDH levels and are expressed as the mean±SD of three independent determinations. Experiments were repeated three times. FIGS. 10E and 10F are graphs showing the levels of IL-23 protein when rinsed fibrocyte and GD-OF monolayers were incubated with or without 50 μg/ml teprotumumab. **, p<0.01; ***. P<0.001.
# as §1
# GD-OF [2] = assay: as above; details: teprotumumab 50 μg/ml or linsitinib 1 μM, 7-9 d
# Protocol: as §2
# FIGS. 15A-15C are dose-response curves of teprotumumab effects on IL-6 expression/induction by bTSH (FIG. 15A); HAS2 expression/induction by bTSH (FIG. 15B); IL-12p35 expression/induction by bTSH (FIG. 15C). Following indicated treatments, cellular RNA was harvest from rinsed GD-OF cell layers, reversed transcribed and subjected to real-time PCR. Values were normalized to their respective GAPDH levels.
# Graves' disease-orbital fibroblast (GD-OF) preparation and cultivtion GD-OF were isolated from orbital adipose/connective tissues removed during surgical orbital decompression surgery, as described ((Smith, T. J., et al., (2002) The Journal of clinical endocrinology and metabolism 87, 385-392). While the fraction of CD34^+ OF comprising GD-OF strains vary somewhat, the ratios of CD34^+/CD34^− OF are usually 50:50 in the early passages utilized in these studies (passages 2-11). Pure CD34^+ OF and CD34^− OF subsets were generated by staining for 30 m at 4° C. with fluorescein isothiocyanate-conjugated […] CD34 or its isotype control followed by cytometric cell sorting using a FACSAria III (BD Biosciences) instrument. Cells were sorted under sterile conditions into either CD34^+ OF, and CD34 OF subsets which were then re-cultured and treated without or with bTSH (5 mU/mL) or the other test compounds, as indicated, for 6 hrs, as indicated.
# as §1
# GD-OF [3] = assay: HAS1 and HAS2 mRNA, real-time PCR; details: teprotumumab 50 μg/ml or linsitinib 1 μM, 7-9 d
# Protocol: (§3) FIGS. 13A-13B are graphs showing the effect of teprotumumab on bTSH induced hyaluronan (HA) production in GD-OF (FIG. 13A) and fibrocytes (FIG. 13B). GD-OF were treated with or without teprotumumab (50 μg/ml) or human Isotype IgG (5 μg/ml) for 7-9 d and stimulated with bTSH (5 mIU/mL) for graded intervals indicated along the abscissa for 0 to 96h. Media were collected and subjected to HA ELISA. Values were normalized to respective cell layer protein levels and expressed as the mean±SD of three independent determinations. Experiments were repeated three times. FIGS. 13C-13F are graphs showing the divergent pattern of hyaluronan synthase (HAS) isoenzyme induction by bTSH in fibrocytes versus GD-OF and effects of teprotumumab (FIGS. 13C and 13D) and linsitinib (FIGS. 13E and 13F). Confluent monolayers of GD-OF and fibrocytes remained untreated or received teprotumumab (50 μg/ml) or linsitinib (1 μM) and human Isotype IgG for 7-9 d. Some cultures were treated with bTSH (5 mIU/mL) for 6h. Cellular RNA was harvested mRNA was reverse transcribed, and cDNA subjected to quantitative real-time PCR for HAS1 and HAS2. Values were normalized to their respective GAPDH levels and are expressed as the mean±SD of three independent determinations. Experiments were repeated three times. *, P<0.05; **, p<0.01; ***. P<0.001.
# as §1
# fibrocytes [4] = assay: HAS1 and HAS2 mRNA, real-time PCR; details: teprotumumab 50 μg/ml or linsitinib 1 μM, 7-9 d
# Protocol: as §3, §1
compound,measurement,setting,value
rhIGF-1: Recombinant Human IGF-1 (R & D systems),"induction of MHC II, CD80, CD86, PD-L1 surface proteins by the agent itself","CD34+ fibrocytes; M22 1 μg/mL (peak at 6 d), IGF-1 10 nM, compared with bTSH",considerably less robust
C[C@]1(O)C[C@@H](c2nc(-c3ccc4ccc(-c5ccccc5)nc4c3)c3c(N)nccn32)C1 [linsitinib],"induction of MHC II, CD80, CD86, PD-L1 surface proteins",CD34+ fibrocytes; bTSH-treated fibrocytes,blocked
same,"induction of MHC II, CD80, CD86, PD-L1 mRNA by bTSH and M22","CD34+ fibrocytes; teprotumumab 50 μg/mL, 1H7 5 μg/mL, linsitinib 1 μM",blocked
same,"IL-12p35 expression, basal and induction by bTSH",fibrocytes [1],increasing
same,"IL-23p19 expression, basal and induction by bTSH",fibrocytes [1],decreasing
same,"IL-12p35 expression, basal and induction by bTSH",GD-OF [2],increasing
same,"IL-23p19 expression, basal and induction by bTSH",GD-OF [2],decreasing
same,"HAS2 expression, single agent or in combination with bTSH",GD-OF [3],nearly identical
same,basal and bTSH-provoked expression of HAS1,GD-OF [3],nearly identical
same,"HAS2 expression, single agent or in combination with bTSH",fibrocytes [4],nearly identical
same,basal and bTSH-provoked expression of HAS1,fibrocytes [4],nearly identical
COc1ccc(C2Nc3ccccc3C(=O)N2Cc2ccco2)cc1COc1c(C)cc(NC(C)=O)cc1C (stereo not drawn) [ML224],"effect on MHC II, CD80, CD86, PD-L1 expression, teprotumumab compared with TSHR inhibitor ML224","CD34+ fibrocytes; 9 d, single agents and in combination",effective
